Measurements: patent US4713445A, “Renin inhibitors and treatments using them” (priority 1983, dated 1987)
Read-outs that look alike come from different tables or passages of the source. *1 amine or outer side, *2 acyl side, *3 side chain or, on linkers, in order; H or OH if unused. Where a SMILES comes first, the peptide text is derived from it. [ ]: non-standard residue; d: D form. The star is where a group is joined. Leuψ(CH2NH)ValIleHisOH = CC[C@H](C)[C@H](NC(=O)[C@@H](NC[C@H](CC(C)C)N*)C(C)C)C(=O)N[C@@H](Cc1c[nH]cn1)C(=O)O; X1 = CC(C)C[C@H](N[*:1])[C@@H](O)C[C@H](C(=O)[*:2])C(C)C; Boc = CC(C)(C)OC(=O)*

Biological target: T1, human renin (Homo sapiens, UniProt P00797)
T1 construct: angiotensin-I released from human renin substrate by human resin in human plasma; from tissue; host or cells: human plasma (containing EDTA)
T1 sequence (P00797 67-406): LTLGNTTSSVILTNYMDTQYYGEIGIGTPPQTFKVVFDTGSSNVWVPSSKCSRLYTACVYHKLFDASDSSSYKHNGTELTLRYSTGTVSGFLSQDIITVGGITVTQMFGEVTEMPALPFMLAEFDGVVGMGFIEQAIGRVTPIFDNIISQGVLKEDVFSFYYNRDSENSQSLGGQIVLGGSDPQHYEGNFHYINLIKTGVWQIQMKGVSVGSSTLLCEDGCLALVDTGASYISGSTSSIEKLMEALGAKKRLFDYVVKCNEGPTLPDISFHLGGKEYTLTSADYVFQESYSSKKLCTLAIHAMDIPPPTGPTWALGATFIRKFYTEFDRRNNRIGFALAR
Assay: human renin-renin substrate reaction in vitro; radioimmunoassay of angiotensin-I released in human plasma
Type: biochemical
Text: Preliminary activity test results in the human […] substrate reaction in vitro are given, with comparative figures for the tetrapeptide analogue (III). […] The test results given herein are based on the methods described by J. A. Miller et al in Clinica Chimica Acta (1980) 101 5-15 and K. Poulsen and J. Jorgensen in J. Clin. Endocrinol. Metab. (1974) 39 816, and is based on the measurement, by radioimmunoassay, of angiotensin-I released from human renin substrate by human resin in human plasma. The inhibitor is dissolved in 0.01N HCl (10 μl) and added to hmman plasma (75 μl) containing EDTA, and angiotensin-I antibody (15 μl) in 3M-Tris/HCl buffer (pH 6.9). After incubation at 37° C. for 0-120 minutes, the enzymic reaction is quenched by the addition of ice-cold 0.25M Tris/HCl buffer (pH 7.4) containing 0.01% of bovine serum albumin. 125I-labelled angiotensin-I is added, followed by equilibration at 4° C. for 48 hours. Free and bound ligand are separated by the addition of dextrancoated charcoal, and the amount of bound radio-ligand determined in a gamma counter.

[1] = Table I, human renin in human plasma, read-out: IC50, μM human
[2] = Table 2, read-out: IC50 μM v/s human renin

SMILES | IC50 [1] [µM] | IC50 [2] [µM] | further results
CC[C@H](C)[C@H](NC(=O)[C@@H](NC[C@H](CC(C)C)NC(=O)[C@H](Cc1c[nH]cn1)NC(=O)[C@H](Cc1ccccc1)NC(=O)[C@@H]1CCCN1C(=O)[C@H](Cc1c[nH]cn1)NC(=O)[C@H]1CCCN1)C(C)C)C(=O)N[C@@H](Cc1c[nH]cn1)C(=O)O [XXIII] (H-[dP]HPFH-{Leuψ(CH2NH)ValIleHisOH}) | 0.025 |  | 
CC[C@H](C)[C@H](NC(=O)[C@@H](NC[C@H](CC(C)C)NC(=O)[C@H](Cc1c[nH]cn1)NC(=O)[C@H](Cc1ccccc1)NC(=O)[C@@H]1CCCN1C(=O)[C@H](Cc1c[nH]cn1)NC(=O)[C@@H]1CCCN1)C(C)C)C(=O)N[C@@H](Cc1c[nH]cn1)C(=O)O [XXII] (H-PHPFH-{Leuψ(CH2NH)ValIleHisOH}) | 0.01 |  | 
CC[C@H](C)[C@H](NC(=O)[C@@H](C[C@H](O)[C@H](CC(C)C)NC(=O)[C@H](Cc1c[nH]cn1)NC(=O)[C@H](Cc1ccccc1)NC(=O)OC(C)(C)C)C(C)C)C(=O)N[C@@H](Cc1c[nH]cn1)C(=O)OC [Example LI] (Boc-FH[X1]IH-OMe) |  | 0.0035 | 
CC[C@H](C)[C@H](NC(=O)[C@@H](C[C@H](O)[C@H](CC(C)C)NC(=O)[C@H](Cc1c[nH]cn1)NC(=O)[C@@H](N)Cc1ccccc1)C(C)C)C(=O)N[C@@H](Cc1c[nH]cn1)C(=O)O [Example XLVII] (H-FH[X1]IH-OH) |  | 5 | 
CC[C@H](C)[C@H](NC(=O)[C@@H](NC[C@H](CC(C)C)NC(=O)[C@H](Cc1c[nH]cn1)NC(=O)[C@H](Cc1ccccc1)NC(=O)[C@@H]1CCCN1C(=O)[C@H](N)Cc1c[nH]cn1)C(C)C)C(=O)N[C@@H](Cc1c[nH]cn1)C(=O)N[C@H](CCCCN)C(=O)O [XXXIX] | 0.2 |  | 
CC(C)C[C@@H](CN([C@@H](CC(C)C)C(=O)N[C@H](C(=O)N[C@@H](Cc1ccc(O)cc1)C(=O)O)C(C)C)S(=O)(=O)c1ccccc1)NC(=O)[C@H](Cc1c[nH]cn1)NC(=O)[C@H](Cc1ccccc1)NC(=O)[C@@H]1CCCN1C(=O)[C@@H](N)Cc1c[nH]cn1 [Example III, H-His-Pro-Phe-His-Leu-reduced (SO2 Ph)-Leu-Val-Tyr-OH] |  |  | IC50 (Table 5, human renin-renin substrate reaction in vitro, read-out: IC50): 1.5 µM
